The text below walks through data of patent US20140243374A1, “Novel Sulfonamides” (The Brigham and Women's Hospital, Inc., priority 2011, published 2014).

Holding throughout (type): cell-based
The target in assay [1] is T1, γ-secretase (Notch cleavage activity) (Homo sapiens, UniProt P49768).
T1 construct: endogenous in cells; host or cells: SUP-T1 cells
Kind of assay: Cleaved Notch1 Sandwich ELISA (SUP-T1 cell line). The note with it: for IC50: SUP-T1 cells, 16 h; for Notch Elisa/Aβ42: ratio Notch Elisa IC50 to Aβ42 IC50. As to the method: Cleaved Notch1 Sandwich ELISA.
This assay was used to determine if the compounds of interest inhibit the Notch cleavage activity of γ-secretase in SUP-T1 cell line, which endogenously expresses a truncated Notch receptor fragment that is a viable gamma-secretase substrate. The base medium for this cell line is ATCC-formulated RPMI-1640 Medium with fetal bovine serum to a final concentration of 10%. Prepare dilution of SUP-T1 cells in complete growth medium to 1.0×10^6 cells/mL, seed 1.5 mL per well of each cell dilution into a 6-well plate. Collect cells treated with serial diluted compounds in DMSO after 16 h, then using equal amount of protein isolated from samples to measure Notch intracellular cleavage by PathScan® Sandwich ELISA Kit (Cell Signaling Tech 7194S).

Assay [2] concerns the target T2, γ-secretase (cleavage of Notch) (Homo sapiens, UniProt P49768).
T2 construct: endogenous in cells; host or cells: U2OS luciferase reporter cells with Tet-on Notch
Kind of assay: Notch cellular assay (luciferase reporter U2OS cells). As to conditions: for IC50: U2OS luciferase reporter cells; for Notch Luc/Aβ42: ratio Notch luciferase IC50 to Aβ42 IC50. As to the method:
This assay was used to determine if the compounds of interest inhibit the cleavage of Notch by γ-secretase in cells. A U2OS cell line in which the luciferase expression is adjusted by active Notch was used in this assay Notch expression is adjusted using Tet-on promoter. Luciferase reporter U2OS cells are plated at 1000 cells/well in 96 well plates in DMEM containing 100 μg/mL hygromycin, 15 μg/mL blasticidin and 1 μg/mL Tetracycline. Compounds were added 24 h after plating and the cells are lysed 6 days after adding compounds. Luciferase expression was performed using Steady-Glo Luciferase Assay System (Promega).

Assay [3] addresses T3, γ-secretase (cleavage of APP, Aβ42) (Homo sapiens, UniProt P49768).
T3 construct: endogenous in cells; host or cells: HEK AP-GL-T16 luciferase reporter cells (tetracycline-induced APP substrate)
Kind of assay: Aβ (1-42) cellular assay (Aβ ELISA, HEK AP-GL-T1 6 cells). As to conditions: cellular Aβ42 ELISA, 24 h compound treatment. As to the method:
Aβ (1-42) Cellular Assay.
The following assay was used to determine the extent to which the compounds of interest inhibit the cleavage of APP in vivo. AβELISA is a commercial fluorometric kit from Biosource (Invitrogen 89344). Luciferase reporter HEK AP-GL-T1 6 cells were plated at 50,000 cells/well in 96 well plates in DMEM media containing 10% tetracyclin free […], 250 μg/mL zeocin, 200 μg/mL hygromycin, and 5 μg/mL blasticidin. Compounds were added 24 h after plating and APP processing is induced simultaneously by addition of tetracycline. Following a 24 h compound treatment, […] of conditioned cell media is collected, mixed with ELISA diluent buffer containing 2 mM AEBSF and 12 mM o-phenanthroline, and immediately frozen at −80° C. For the ELISA, the samples were brought to room temperature and spun at 5000 rpm for 5 min. Samples ([…]) are incubated in the ELISA plate with […] detection antibody on a shaker at room temperature for 3 h. Wells were then washed 4 times with wash buffer and 100 mL of secondary antibody are added and incubated at room temperature for 30 min. Wells were again washed 4 times with wash buffer and 100 mL of fluorescent substrate solution are added. After 30 minutes of incubation, fluorescent signals are determine on a Gemini reader at ex 460 nm and em 560 nm. The amount of Aβ levels in each sample was determined from a standard curve generated by known concentrations of Aβ peptide run simultaneously with the samples.

Structures are written as SMILES. Where “and” joins values, the source holds several entries; their conditions need not be identical. Equal entries are not always repeated.

For `O=C(O)c1ccc(CN(C2CCCCC2F)S(=O)(=O)c2ccc(Cl)cc2)cc1` (single isomer, unassigned) [Example 58, 4-((4-Chloro-N-(2-fluorocyclohexyl)phenylsulfonamido)methyl)benzoic acid], the IC50 is 10100 nM in assay [1]; 259000 nM in assay [2]; 341 nM and 686 nM and 207 nM in assay [3]. Besides, the “Notch Elisa/Aβ42” value in assay [1] (listed as 58/1231A) amounted to 25. Moreover, in assay [2] (listed as 58/1231A), the “Notch Luc/Aβ42” value worked out at 630.
In the case of `O=C(O)c1ccc(CN(C2CCCCC2F)S(=O)(=O)c2ccc(Cl)cc2)cc1` (single isomer, unassigned) [Example 59, 4-((4-Chloro-N-(2-fluorocyclohexyl)phenylsulfonamido)methyl)benzoic acid], the IC50 in assay [1] is 2930 nM; in assay [2] it was 9400 nM; in assay [3] it was 60.7 nM and 195 nM and 101 nM. Also, the “Notch Elisa/Aβ42” value in assay [1] (listed as 59/1231B) was determined as 25. The “Notch Luc/Aβ42” value in assay [2] (listed as 59/1231B) came out at 79.
For the compound `CC1CCCCC1N(Cc1ccc(C(=O)N[C@H](C)CO)cc1)S(=O)(=O)c1ccc(Cl)cc1` (stereo partly drawn) [Example 4, 4-((4-Chloro-N-(2-methylcyclohexyl)phenylsulfonamido)methyl)-N-((R)-1-hydroxypropan-2-yl)benzamide], the IC50 in assay [1] is 180 nM and 120 nM; in assay [3], 0.87 nM and 0.65 nM and 0.89 nM. In assay [1], the “Notch Elisa/Aβ42” value is 188. Further, the “Notch Luc/Aβ42” value in assay [2] is recorded as 2950.
For `COC[C@@H](C)NC(=O)c1ccc(CN(C2CCCCC2C)S(=O)(=O)c2ccc(Cl)cc2)cc1` (stereo partly drawn) [Example 14, 4-((4-Chloro-N-(2-methylcyclohexyl)phenylsulfonamido)methyl)-N-((R)-1-methoxypropan-2-yl)benzamide], the figures for the IC50 in assay [1], in assay [2] and in assay [3] were 710 nM, 303 nM and 0.7 nM, respectively. Besides, the “Notch Elisa/Aβ42” value in assay [1] was 1014. In assay [2] (listed as 14/1136), the “Notch Luc/Aβ42” value amounted to 433.
Consider `COC[C@@H](C)NC(=O)c1ccc(CN(C2CCCCC2C)S(=O)(=O)c2ccc(Cl)cc2)cc1` (stereo partly drawn) [Example 46, 4-((4-Chloro-N-(2-methylcyclohexyl)phenylsulfonamido)methyl)-N-((R)-1-methoxypropan-2-yl)benzamide], for which the IC50 in assay [1] came out at 710 nM; in assay [2] it was 303 nM; in assay [3], 0.7 nM. Also, the “Notch Luc/Aβ42” value in assay [2] (listed as 46/1221) was 432.
With `CC1CCCCC1N(Cc1ccc(C(=O)NC[C@H](C)O)cc1)S(=O)(=O)c1ccc(Cl)cc1` (stereo partly drawn) [Example 47, 4-((4-Chloro-N-(2-methylcyclohexyl)phenylsulfonamido)methyl)-N—((S)-2-hydroxypropyl)benzamide], the values for the IC50 in assay [1], in assay [2] and in assay [3] were 350 nM, 690 nM and 0.873 nM, respectively. Further, the “Notch Elisa/Aβ42” value in assay [1] amounted to 401. Further, the “Notch Luc/Aβ42” value in assay [2] was determined as 791.
On the same counts, the results for `CC(=O)CNC(=O)c1ccc(CN(C2CCCCC2C)S(=O)(=O)c2ccc(Cl)cc2)cc1` (stereo not shown) [Example 48, 4-((4-Chloro-N-(2-methylcyclohexyl)phenylsulfonamido)methyl)-N-(2-oxopropyl)benzamide] are 220 nM, 182 nM, 0.715 nM, 314 and 260.
Taken in the same sequence, the figures for `CC1CCCC(N(Cc2ccc(C(=O)N[C@H](C)CO)cc2)S(=O)(=O)c2ccc(Cl)cc2)C1` (stereo partly drawn) [Example 50, 4-((4-Chloro-N-(3-methylcyclohexyl)phenylsulfonamido)methyl)-N—((R)-1-hydroxypropan-2-yl)benzamide] were 2160 nM, 10600 nM, 7.32 nM, 309 and 1456.
Take `O=C(O)c1ccc(CN(C2CCCCC2F)S(=O)(=O)c2ccc(Cl)cc2)cc1` (stereo not shown) [Example 57, 4-((4-Chloro-N-(2-fluorocyclohexyl)phenylsulfonamido)methyl)benzoic acid]: the IC50 was 1070 nM in assay [1]; 28600 nM in assay [2]; 50.1 nM and 79.6 nM and 98.5 nM in assay [3]. For the same compound, the “Notch Elisa/Aβ42” value in assay [1] (listed as 57/1231) is on record as 14. Further, in assay [2] (listed as 57/1231), the “Notch Luc/Aβ42” value was determined as 376.
